Common to all, as to type: in vivo, mouse
Data set [1] has as its system choroidal neovascularization. Kind of data set: Laser-induced choroidal neovascularization (CNV) volume in mice. Particulars: for CNV volume in wild-type mice versus PBS: FIG. 7/8, 0.25 μg into the vitreous humor immediately after laser injury; for CNV in TLR3−/− mice: FIG. 7, differences not statistically significant; for effect on choroidal neovascularization (CNV): FIG. 1, 0.2-2 μg, poly I:C vs control poly dI:dC, loxoribine vs control PBS; for ability to suppress CNV in IL-10−/− mice / ability to suppress CNV in IL-12−/− mice: FIG. 6, 2 μg; for ability to suppress CNV in IL-10−/− mice: IL-10−/− mice versus wild-type; for ability to suppress CNV in IL-12−/− mice: IL-12−/− mice versus wild-type. From the text: All animal experiments were in accordance with the guidelines of the University of Kentucky IACUC and the Association for Research in Vision and Ophthalmology. Male C57BL/6J mice (Jackson Laboratory) between 6 and 8 weeks of age were used to minimize variability. The sources for the other mouse strains were: TLR3−/−, IL-10−/−, IL-12−/−, IFNγ−/− (Jackson Laboratory), IFNAR-1−/− (gift of H. Virgin, Washington University), TLR7−/− (gift of D. Golenback, University of Massachusetts), TLR9−/− (gift of E. Pearlman, Case Western Reserve University), VEGFR1 tyrosine kinase−/− (gift of M. Shibuya, University of Tokyo), Trif−/− (Trif deficient Lps2 mice from The Jackson Laboratories). For all procedures, anesthesia was achieved by intraperitoneal injection of 50 mg/kg ketamine hydrochloride (Ft. Dodge Animal Health) and 10 mg/kg xylazine (Phoenix Scientific), and pupils were dilated with topical 1% tropicamide (Alcon Laboratories).
Laser photocoagulation (532 nm, 200 mW, 100 ms, 75 μm) (OcuLight GL, Iridex Corporation) was performed (volume studies: 3/eye; protein analyses/flow cytometry: 12/eye) on both eyes of each animal to induce CNV (choroidal neovascularization). CNV volumes were measured by scanning laser confocal microscope (TCS SP, Leica) with 0.5% FITC-Griffonia simplicifolia Isolectin B4 (Vector Laboratories) or 0.5% FITC-rat antibody against mouse CD31 (BD Biosciences). Volumes obtained by lectin and CD31 staining were highly correlated (r^2=0.95).
Also tested were shorter non-targeted siRNAs: a 5+2 length nucleotide (5 nucleotides plus a 2 nucleotide overhang, with one strand having the sequence UAAGGdTdT and the other strand having the sequence CCUUAdTdT), and a 11+2 length nucleotide (11 nucleotides plus a 2 nucleotide overhang, with one strand having the sequence […]dTdT and the other strand having the sequence […]dTdT).
Because the probability of each laser lesion developing CNV is influenced by the group to which it belongs, the mouse, the eye, and the laser spot, the mean lesion volumes were compared using a linear mixed model with a split plot repeated measures design. The whole plot factor was the genetic group to which the animal belonged while the split plot factor was the eye. Statistical significance was determined at the 0.05 level. Post hoc comparison of means was constructed with a Bonferroni adjustment for multiple comparisons. ELISA measurements were compared by Student's t-test.

For the next data set, the system named is IL-10. Kind of data set: IL-10 protein ELISA in RPE/choroid after laser injury. The following applies: FIG. 4; 2 μg; wild-type mice; 3 days after laser injury. How it is done: (§1) Laser photocoagulation (532 nm, 200 mW, 100 ms, 75 μm) (OcuLight GL, Iridex Corporation) was performed (volume studies: 3/eye; protein analyses/flow cytometry: 12/eye) on both eyes of each animal to induce CNV (choroidal neovascularization). CNV volumes were measured by scanning laser confocal microscope (TCS SP, Leica) with 0.5% FITC-Griffonia simplicifolia Isolectin B4 (Vector Laboratories) or 0.5% FITC-rat antibody against mouse CD31 (BD Biosciences). Volumes obtained by lectin and CD31 staining were highly correlated (r^2=0.95). […]
(§2) IL-10 and IL-12 protein levels were measured by ELISA (Peprotech) according to the manufacturer's instructions, as were IFN-α, IFN-β and IFN-γ (PBL InterferonSource). Total protein was measured according to Biorad.
(§3) Because the probability of each laser lesion developing CNV is influenced by the group to which it belongs, the mouse, the eye, and the laser spot, the mean lesion volumes were compared using a linear mixed model with a split plot repeated measures design. […] Statistical significance was determined at the 0.05 level. […]

In a further data set the test system is IL-12. Kind of data set: IL-12 protein ELISA in RPE/choroid after laser injury. The following applies: FIG. 4; 2 μg; wild-type mice; 1 day after laser injury. Here is the method: as §1, §2, §3
IFN-α and IFN-β were measured by ELISA and normalized to total protein. […] IFN-γ was measured by ELISA (PBL InterferonSource) and IL-12 was measured by ELISA (eBioscience) and normalized to total protein. *P<0.05.

[2] abbreviates: dose-dependent, intravitreous immediately after laser injury, P<0.05.

Entries after “also recorded” stand apart in the source; their conditions may differ. d = 2'-deoxy (DNA); r = 2'-OH (RNA)

This note sets out measurements from patent US8957035B2, “Toll like receptor (TLR) stimulation for ocular angiogenesis and macular degeneration” (University of Kentucky Research Foundation, priority 2006, dated 2015).

In the case of “Sirna-027: siRNA against VEGFR-1; sense CUGAGUUUAAAAGGCACCCdTdT, antisense GGGUGCCUUUUAAACUCAGdTdT (sense CUGAGUUUAAAAGGCACCCTT; antisense GGGUGCCUUUUAAACUCAGTT; sugars from the 5' end r19 d2, backbone not given here)”, the “CNV volume in wild-type mice versus PBS” value in data set [1] (P<0.05) is given as “essentially equally effective in suppressing CNV; also recorded: significantly lower than control”. In data set [1] (0.25 μg intravitreous), the “CNV in TLR3−/− mice” value is “non of them suppressed CNV”. Besides, the “CNV in VEGFR1 tk−/− mice versus PBS” value in data set [1] (FIG. 8, 0.25 μg intravitreous, VEGFR1 tyrosine kinase−/− mice, P<0.05) was “suppressed CNV”.

In the case of “recombinant mouse IFNγ: recombinant mouse IFNγ (eBioscience)”, the “effect on choroidal neovascularization in wild-type C57BL/6J mice” value in data set [1] (FIG. 14, intravitreous immediately after laser injury, dose-dependent, P<0.05) is listed as “reduced choroidal neovascularization”.

Take Poly I:C: in data set [1] (setting [2]), the “effect on choroidal neovascularization (CNV)” value is “reduced CNV”. In addition, in data set [1], the “ability to suppress CNV in IL-10−/− mice” value is reported as “markedly reduced” and the “ability to suppress CNV in IL-12−/− mice” value is recorded as “markedly reduced”. The “IL-10 protein expression in the RPE/choroid” value in the data set on IL-10 is listed as “induced”. Moreover, the “IL-12 protein expression in the RPE/choroid” value with IL-12 is on record as “induced”.

Regarding “Bevasiranib: siRNA against VEGF-A; sense ACCUCACCAAGGCCAGCACdTdT, antisense GUGCUGGCCUUGGUGAGGUdTdT (sense ACCUCACCAAGGCCAGCACTT; antisense GUGCUGGCCUUGGUGAGGUTT; sugars from the 5' end r19 d2, backbone not given here)”, the “CNV volume in wild-type mice versus PBS” value in data set [1] (P<0.05) was “essentially equally effective in suppressing CNV”. Moreover, the “CNV in TLR3−/− mice” value in data set [1] (0.25 μg intravitreous) is given as “non of them suppressed CNV”.

`C=CCn1c(=O)n([C@@H]2O[C@H](CO)[C@@H](O)[C@H]2O)c2nc(N)[nH]c(=O)c21` [Loxoribine]: the “effect on choroidal neovascularization (CNV)” value in data set [1] (setting [2]) is listed as “reduced CNV”. Moreover, in data set [1], the “ability to suppress CNV in IL-10−/− mice” value was “markedly reduced” and the “ability to suppress CNV in IL-12−/− mice” value was “markedly reduced”. In the data set with IL-10, the “IL-10 protein expression in the RPE/choroid” value is on record as “induced”. The “IL-12 protein expression in the RPE/choroid” value in the data set with IL-12 was “induced”.
